Data as given in patent EP0101944A1, “Immunomodulators containing as the active ingredient alpha-benzyl malic acid” (MICROBIAL CHEMISTRY RESEARCH FOUNDATION, priority 1982, dated 1984).

What was measured:
[1] = system: cell-mediated immunity; experiment: Delayed-type hypersensitivity (D.T.H.) to sheep red blood cells, foot pad swelling in normal mice; type: in vivo, CDF1 mice; settings: single dose; for Thickness of the foot pad: SRBC-sensitized female CDF1 mice, measured 24 h after challenge, control 8.6 ± 1.29; for % on the control's value: foot pad thickness, control = 100 %
Description: The action of &-benzyl malic acid on cell-mediated immunity was investigated using as its index the degree of delayed-type hypersensitivity (hereinafter referred to as D.T.H.) obtained by inoculating the foot pads of mice with sheep red blood cells (hereinafter referred to as SRBC) used as the antigen (Reference: J.Exp.Med. 139, 1529-1539, 1974).
A suspension of […] SRBCs in 0.05 ml of physiological saline solution was inoculated subcutaneously to the foot pad of one of the hind legs of CDF1 mice (female, 8 weeks old). Simultaneously, an aqueous solution containing 5, 0.5, 0.05 or 0.005 mg/kg of α-benzyl malic acid was administered intraperitoneally in a single dose. Four days after administration, a suspension of 10^8 SRBCs in 0.05 ml of physiological saline solution was subcutaneously administered to the foot pad of the other hind leg to induce secondary immune response. Twenty-four hours later, swelling on the foot pad (increased thickness of the foot pad) was measured with a calipers. The thickness of the foot pad in control animals, which had been sensitized with SRBCs and intraperitoneally administered physiological saline solution without having received the test compound, was evaluated to be 100 %. The thickness of the foot pad in the test animals that had been treated in the aforementioned way was compared with that in the control animals, thereby judging the cell-mediated immunity potentiating effect of the test compound.

[2] = system: cell-mediated immunity; experiment: Picryl chloride ear swelling in cancer-inflicted (Ascites Sarcoma 180) mice; type: in vivo, CDF1 mice; settings: for Increase in ear thickness: Sarcoma 180-bearing female CDF1 mice, picryl chloride, control 4.11 ± 1.11; for Rate to the control value: increase in ear thickness T/C, control = 100.0
Source text: (Effect on cell-mediated immunity in cancer-inflicted mice; picryl chloride was used as the antigen)
10^6 cells of Ascites Sarcoma 180 were intraperitoneally transplanted to groups of 12-week-old female CDF1 mice (6 mice/group). The day of transplantation was designated as Day 0. On Day 1, a 6 % solution of picryl chloride in ethanol was applied to a shaven skin (25 mm x 15 mm) of the abdomen with the use of a cut absorbent cotton (20 mm x 20 mm x 2 mm) impregnated with the solution to thereby sensitize the mice. On Day 8, both ears were measured for thickness with a dial gauge, to determine the baseline value (a).
Then, both ears were sensitized with a 20 mm x 4 mm x 1 mm cut absorbent cotton impregnated with a 1 % solution of picryl chloride in olive oil. On Day 9, both swollen ears were measured for their thickness with a dial gauge to obtain a value (b). The baseline value (a) was subtracted from the value (b) to determine the increase in ear thickness (b - a) for the control group (C).
On the other hand, 5.0, 0.5, 0.05 or 0.005 mg/kg of the test compound dissolved in physiological saline solution was orally administered once daily for 6 consecutive days between the day and 8 days after inoculation of Sarcoma 180. The mice were sensitized with picryl chloride in the same way as in the control group, and the thickness of the ears was similarly measured to determine the increase in ear thickness (b' - a') for the treatment group (T).
The rate of increase in ear thickness for the treatment group to that for the control group was calculated from the following equation: [formula] to determine the cell-mediated immunity modulating activity of the present compound.

[3] = Acute toxicity test in mice; type: in vivo; settings: i.v. dose of 500 mg/kg
Source text: The present compound is therefore believed to be a safe substance.

[4] = 0.005 mg/kg orally once daily for 6 consecutive days
[5] = 0.05 mg/kg orally once daily for 6 consecutive days
[6] = 0.5 mg/kg orally once daily for 6 consecutive days
[7] = 5.0 mg/kg orally once daily for 6 consecutive days

Structure (SMILES)	Thickness of the foot pad ([1]; 0.005 mg/kg intraperitoneally)	% on the control's value ([1]; 0.005 mg/kg intraperitoneally)	Thickness of the foot pad ([1]; 0.05 mg/kg intraperitoneally)	% on the control's value ([1]; 0.05 mg/kg intraperitoneally)	Thickness of the foot pad ([1]; 0.5 mg/kg intraperitoneally)	% on the control's value ([1]; 0.5 mg/kg intraperitoneally)	Thickness of the foot pad ([1]; 5 mg/kg intraperitoneally)	% on the control's value ([1]; 5 mg/kg intraperitoneally)	Increase in ear thickness [2, 4]	Rate to the control value [2, 4]	Increase in ear thickness [2, 5]	Increase in ear thickness ([2]; 0.05 mg/kg orally once daily for 6 consecutive days, listed as the present compound)	Rate to the control value [2, 5]	Increase in ear thickness [2, 6]	Rate to the control value [2, 6]	Increase in ear thickness [2, 7]	Rate to the control value [2, 7]	deaths in acute toxicity tests [3]
O=C(O)CC(O)(Cc1ccccc1)C(=O)O (stereo not drawn) [α-benzyl malic acid]	11.8 ± 1.15 x 0.1 mm	137%	13.4 ± 1.61 x 0.1 mm	156%	14.4 ± 1.52 x 0.1 mm	167%	12.8 ± 1.42 x 0.1 mm	149%	5.18 ± 0.67 x 0.01 mm	126.0%	5.29 ± 0.33 x 0.01 mm	5.29 + 0.33 x 0.01 mm	128.7%	5.08 ± 0.56 x 0.01 mm	123.6%	4.71 ± 0.95 x 0.01 mm	114.6%	no deaths
CC(C)C[C@H](NC(=O)[C@@H](O)[C@H](N)Cc1ccccc1)C(=O)O [Bestatin, [(2S,3R)-5-amino-2-hydroxy-4-phenyl-(S)-leucine], reference compound]					12.6 ± 1.12 x 0.1 mm	147%												
